One may read the EC50 as the concentration that produces a half-maximal response.

The first experiment has as its system ZIKV. The experiment in a line: microbe, parasite or virus in culture. It counts as cell-based, Zika virus. As to conditions: 48 hrs.
In turn, `COC(=O)N[C@H](C(=O)N1CC2(CC2)C[C@H]1c1nc(Cl)c(-c2ccc3c(c2)COc2cc4c(ccc5nc([C@@H]6CC7(CC7)CN6C(=O)[C@@H](NC(=O)OC)C(C)(C)C(F)(F)F)[nH]c54)cc2-3)[nH]1)C(C)(C)C(F)(F)F` [Compound 4, methyl ((S)-1-((S)-6-(4-chloro-5-(2-((S)-5-((S)-4,4,4-trifluoro-2-((methoxycarbonyl)amino)-3,3-dimethylbutanoyl)-5-azaspiro[2.4]heptan-6-yl)-1,11-dihydroisochromeno[4′,3′:6,7]naphtho[1,2-d]imidazol-9-yl)-1H-imidazol-2-yl)-5-azaspiro[2.4]heptan-5-yl)-4,4,4-trilluoro-3,3-dimethyl-1-oxobutan-2-yl)carbamate] yielded a half-maximal effective concentration (EC50) of 0.0087 µM.

“methyl ((S)-1-((2S,5S)-2-(5-(2-((2S,5S)-1-(O-(tert-butyl)-N-(methoxycarbonyl)-L-threonyl)-5-methylpyrrolidin-2-yl)-1,11-dihydroisochromeno[4′,3′:6,7]naphtho[1,2-d]imidazol-9-yl)-4-chloro-1H-imidazol-2-yl)-5-methylpyrrolidin-1-yl)-3-methyl-1-oxobutan-2-yl)carbamate [Compound 1]” registered an EC50 of 0.0249 µM. This EC50 is about 2.9-fold higher than that of the compound before.

Still in this experiment, the particulars now being: Zika virus, Huh-7; 48 hrs.
The compound `COC(=O)N[C@H](C(=O)N1[C@@H](C)CC[C@H]1c1nc(Cl)c(-c2ccc3c(c2)COc2cc4c(ccc5nc([C@@H]6CC[C@H](C)N6C(=O)[C@@H](NC(=O)OC)C(C)C)[nH]c54)cc2-3)[nH]1)C(C)C` [Compound 21, methyl ((S)-1-((2S,5S)-2-(4-chloro-5-(2-((2S,5S)-1-((methoxycarbonyl)-L-valyl)-5-methylpyrrolidin-2-yl)-1,11-dihydroisochromeno[4′,3′:6,7]naphtho[1,2-d]imidazol-9-yl)-1H-imidazol-2-yl)-5-methylpyrrolidin-1-yl)-3-methyl-1-oxobutan-2-yl)carbamate] displayed an EC50 of 0.0189 µM.

Take `CC[C@H](C)[C@H](NC(=O)OC)C(=O)N1C[C@@H](COC)C[C@H]1c1nc(Cl)c(-c2ccc3c(c2)COc2cc4c(ccc5nc([C@@H]6CC[C@H](C)N6C(=O)[C@@H](NC(=O)OC)C(C)C)[nH]c54)cc2-3)[nH]1` [Compound 14, methyl ((S)-1-((2S,5S)-2-(9-(4-chloro-2-((2S,4S)-1-((methoxycarbonyl)-L-isoleucyl)-4-(methoxymethyl)pyrrolidin-2-yl)-1H-imidazol-5-yl)-1,11-dihydroisochromeno[4′,3′:6,7]naphtho[1,2-d]imidazol-2-yl)-5-methylpyrrolidin-1-yl)-3-methyl-1-oxobutan-2-yl)carbamate]: a half-maximal response (EC50) required 0.0097 µM.

Take `COC(=O)N[C@H](C(=O)N1[C@@H](C)CC[C@H]1c1nc(C(C)C)c(-c2ccc3c(c2)COc2cc4c(ccc5nc([C@@H]6CC[C@H](C)N6C(=O)[C@@H](NC(=O)OC)C(C)C)[nH]c54)cc2-3)[nH]1)C(C)C` [Compound 43, methyl ((S)-1-((2S,5S)-2-(4-isopropyl-5-(2-((2S,5S)-1-((methoxycarbonyl)-L-valyl)-5-methylpyrrolidin-2-yl)-1,11-dihydroisochromeno[4′,3′:6,7]naphtho[1,2-d]imidazol-9-yl)-1H-imidazol-2-yl)-5-methylpyrrolidin-1-yl)-3-methyl-1-oxobutan-2-yl)carbamate]: it took 0.0577 µM to reach a half-maximal effect (EC50).

Compound `CC[C@@H](C)[C@H](NC(=O)OC)C(=O)N1[C@@H](C)CC[C@H]1c1nc(Cl)c(-c2ccc3c(c2)COc2cc4c(ccc5nc([C@@H]6CC[C@H](C)N6C(=O)[C@@H](NC(=O)OC)[C@H](C)CC)[nH]c54)cc2-3)[nH]1` [Compound 25, methyl ((2S,3R)-1-((2S,5S)-2-(4-chloro-5-(2-((2S,5S)-1-((methoxycarbonyl)-L-alloisoleucyl)-5-methylpyrrolidin-2-yl)-1,11-dihydroisochromeno[4′,3′:6,7]naphtho[1,2-d]imidazol-9-yl)-1H-imidazol-2-yl)-5-methylpyrrolidin-1-yl)-3-methyl-1-oxopentan-2-yl)carbamate] showed an EC50 of 0.0083 µM.

With `COC(=O)N[C@H](C(=O)N1[C@@H](C)CC[C@H]1c1nc(Br)c(-c2ccc3c(c2)COc2cc4c(ccc5nc([C@@H]6CC[C@H](C)N6C(=O)[C@@H](NC(=O)OC)C(C)C)[nH]c54)cc2-3)[nH]1)C(C)C` [Compound 31, methyl ((S)-1-((2S,5S)-2-(4-bromo-5-(2-((2S,5S)-1-((methoxycarbonyl)-L-valyl)-5-methylpyrrolidin-2-yl)-1,11-dihydroisochromeno[4′,3′:6,7]naphtho[1,2-d]imidazol-9-yl)-1H-imidazol-2-yl)-5-methylpyrrolidin-1-yl)-3-methyl-1-oxobutan-2-yl)carbamate], a half-maximal effect (EC50) was put at 0.0085 µM.

On to `COC(=O)N[C@H](C(=O)N1[C@@H](C)CC[C@H]1c1nc(Cl)c(-c2ccc3c(c2)COc2cc4c(ccc5nc([C@@H]6CC[C@H](C)N6C(=O)[C@@H](NC(=O)OC)C(C)(C)C)[nH]c54)cc2-3)[nH]1)C(C)(C)C` [Compound 23, methyl ((S)-1-((2S,5S)-2-(4-chloro-5-(2-((2S,5S)-1-((S)-2-((methoxycarbonyl)amino)-3,3-dimethylbutanoyl)-5-methylpyrrolidin-2-yl)-1,11-dihydroisochromeno[4′,3′:6,7]naphtho[1,2-d]imidazol-9-yl)-1H-imidazol-2-yl)-5-methylpyrrolidin-1-yl)-3,3-dimethyl-1-oxobutan-2-yl)carbamate], for which a half-maximal effect (EC50) was put at 0.0094 µM.

Compound `COC[C@H]1C[C@@H](c2nc(Cl)c(-c3ccc4c(c3)COc3cc5c(ccc6nc([C@@H]7CC[C@H](C)N7C(=O)[C@@H](NC(=O)OC)C(C)C)[nH]c65)cc3-4)[nH]2)N(C(=O)[C@@H](NC(=O)OC)C(C)C)C1` [Compound 7, methyl ((S)-1-((2S,5S)-2-(9-(4-chloro-2-((2S,4S)-1-((methoxycarbonyl)-L-valyl)-4-(methoxymethyl)pyrrolidin-2-yl)-1H-imidazol-5-yl)-1,11-dihydroisochromeno[4′,3′:6,7]naphtho[1,2-d]imidazol-2-yl)-5-methylpyrrolidin-1-yl)-3-methyl-1-oxobutan-2-yl)carbamate] displayed an EC50 of 0.039 µM.

`CC[C@H](C)[C@H](NC(=O)OC)C(=O)N1[C@@H](C)CC[C@H]1c1nc(Cl)c(-c2ccc3c(c2)COc2cc4c(ccc5nc([C@@H]6CC[C@H](C)N6C(=O)[C@@H](NC(=O)OC)C6CCOCC6)[nH]c54)cc2-3)[nH]1` [Compound 15, methyl ((S)-2-((2S,5S)-2-(9-(4-chloro-2-((2S,5S)-1-((methoxycarbonyl)-L-isoleucyl)-5-methylpyrrolidin-2-yl)-1H-imidazol-5-yl)-1,11-dihydroisochromeno[4′,3′:6,7]naphtho[1,2-d]imidazol-2-yl)-5-methylpyrrolidin-1-yl)-2-oxo-1-(tetrahydro-2H-pyran-4-yl)ethyl)carbamate] gave an EC50 of 0.0077 µM.

In the case of `CC[C@H](C)[C@H](NC(=O)OC)C(=O)N1[C@@H](C)CC[C@H]1c1nc(Cl)c(-c2ccc3c(c2)COc2cc4c(ccc5nc([C@@H]6CC[C@H](C)N6C(=O)[C@@H](NC(=O)OC)[C@@H](C)CC)[nH]c54)cc2-3)[nH]1` [Compound 22, methyl ((2S,3S)-1-((2S,5S)-2-(4-chloro-5-(2-((2S,5S)-1-((methoxycarbonyl)-L-isoleucyl)-5-methylpyrrolidin-2-yl)-1,11-dihydroisochromeno[4′,3′:6,7]naphtho[1,2-d]imidazol-9-yl)-1H-imidazol-2-yl)-5-methylpyrrolidin-1-yl)-3-methyl-1-oxopentan-2-yl)carbamate], the EC50 is 0.0108 µM.

Compound `CC[C@H](C)[C@H](NC(=O)OC)C(=O)N1[C@@H](C)CC[C@H]1c1nc(C2CC2)c(-c2ccc3c(c2)COc2cc4c(ccc5nc([C@@H]6CC[C@H](C)N6C(=O)[C@@H](NC(=O)OC)[C@@H](C)CC)[nH]c54)cc2-3)[nH]1` [Compound 39, methyl ((2S,3S)-1-((2S,5S)-2-(4-cyclopropyl-5-(2-((2S,5S)-1-((methoxycarbonyl)-L-isoleucyl)-5-methylpyrrolidin-2-yl)-1,11-dihydroisochromeno[4′,3′:6,7]naphtho[1,2-d]imidazol-9-yl)-1H-imidazol-2-yl)-5-methylpyrrolidin-1-yl)-3-methyl-1-oxopentan-2-yl)carbamate] showed an EC50 of 0.0172 µM.

For the compound `CC[C@@H](C)[C@H](NC(=O)OC)C(=O)N1[C@@H](C)CC[C@H]1c1nc(C(C)C)c(-c2ccc3c(c2)COc2cc4c(ccc5nc([C@@H]6CC[C@H](C)N6C(=O)[C@@H](NC(=O)OC)[C@H](C)CC)[nH]c54)cc2-3)[nH]1` [Compound 46, methyl ((2S,3R)-1-((2S,5S)-2-(4-isopropyl-5-(2-((2S,5S)-1-((methoxycarbonyl)-L-alloisoleucyl)-5-methylpyrrolidin-2-yl)-1,11-dihydroisochromeno[4′,3′:6,7]naphtho[1,2-d]imidazol-9-yl)-1H-imidazol-2-yl)-5-methylpyrrolidin-1-yl)-3-methyl-1-oxopentan-2-yl)carbamate], the EC50 worked out at 0.0267 µM.

`CC[C@@H](C)[C@H](NC(=O)OC)C(=O)N1[C@@H](C)CC[C@H]1c1nc(C2CC2)c(-c2ccc3c(c2)COc2cc4c(ccc5nc([C@@H]6CC[C@H](C)N6C(=O)[C@@H](NC(=O)OC)[C@H](C)CC)[nH]c54)cc2-3)[nH]1` [Compound 40, methyl ((2S,3R)-1-((2S,5S)-2-(4-cyclopropyl-5-(2-((2S,5S)-1-((methoxycarbonyl)-L-alloisoleucyl)-5-methylpyrrolidin-2-yl)-1,11-dihydroisochromeno[4′,3′:6,7]naphtho[1,2-d]imidazol-9-yl)-1H-imidazol-2-yl)-5-methylpyrrolidin-1-yl)-3-methyl-1-oxopentan-2-yl)carbamate] yielded an EC50 of 0.0251 µM. The EC50 values of the last two compounds are within 1.5-fold of each other.

Regarding `COC[C@H]1C[C@@H](c2nc(C#N)c(-c3ccc4c(c3)COc3cc5c(ccc6nc([C@@H]7CC[C@H](C)N7C(=O)[C@@H](NC(=O)OC)C(C)C)[nH]c65)cc3-4)[nH]2)N(C(=O)[C@@H](NC(=O)OC)C(C)C)C1` [Compound 13, methyl ((S)-1-((2S,5S)-2-(9-(4-cyano-2-((2S,4S)-1-((methoxycarbonyl)-L-valyl)-4-(methoxymethyl)pyrrolidin-2-yl)-1H-imidazol-5-yl)-1,11-dihydroisochromeno[4′,3′:6,7]naphtho[1,2-d]imidazol-2-yl)-5-methylpyrrolidin-1-yl)-3-methyl-1-oxobutan-2-yl)carbamate], the response was half-maximal at 0.0516 µM (EC50).
